Laboratory results as given in the supplement of paper PMC10307832.

Key:
Assay in all cases: relative viability (nuclei count vs DMSO), 5 days (fraction); higher = more cells survive
Ruxolitinib + Vorinostat = compound: N#CC[C@H](C1CCCC1)n1cc(-c2ncnc3[nH]ccc23)cn1 [Ruxolitinib] + O=C(CCCCCCC(=O)Nc1ccccc1)NO [Vorinostat] (partner 1 µM)
Procedure, shortened: (§1)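 For relative viability, nuclei counts in treated wells were divided by those in vehicle wells. Lung cancer cell lines had been pin-tool dosed in 1536-well plates the day after seeding and cultured for 5 days, then fixed and stained in one step (final 0.05% Triton X-100, 1% formaldehyde, 1 ug/ml Hoechst) and imaged at 4×. Doses were one drug alone or a fixed anchor-drug dose plus five library-drug doses (not always all listed) in √10 steps, and values are duplicate-plate medians.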

Vismodegib + Crizotinib = compound: CS(=O)(=O)c1ccc(C(=O)Nc2ccc(Cl)c(-c3ccccn3)c2)c(Cl)c1 [Vismodegib] + C[C@@H](Oc1cc(-c2cnn(C3CCNCC3)c2)cnc1N)c1c(Cl)ccc(F)c1Cl [Crizotinib] (partner 1 µM)
Procedure, shortened: as §1

Vismodegib + Decitabine = compound: CS(=O)(=O)c1ccc(C(=O)Nc2ccc(Cl)c(-c3ccccn3)c2)c(Cl)c1 [Vismodegib] + Nc1ncn([C@H]2C[C@H](O)[C@@H](CO)O2)c(=O)n1 [Decitabine] (partner 2 µM)
Procedure, shortened: as §1

Vismodegib + Vorinostat = compound: CS(=O)(=O)c1ccc(C(=O)Nc2ccc(Cl)c(-c3ccccn3)c2)c(Cl)c1 [Vismodegib] + O=C(CCCCCCC(=O)Nc1ccccc1)NO [Vorinostat] (partner 1 µM)
Procedure, shortened: as §1

Cell Line | relative viability (Ruxolitinib + Vorinostat; first compound 0.08 µM) | relative viability (Ruxolitinib + Vorinostat; first compound 0.253 µM) | relative viability (Ruxolitinib + Vorinostat; first compound 0.8 µM) | relative viability (Ruxolitinib + Vorinostat; first compound 2.53 µM) | relative viability (Ruxolitinib + Vorinostat; first compound 8 µM) | relative viability (Vismodegib + Crizotinib; first compound 0.08 µM) | relative viability (Vismodegib + Crizotinib; first compound 0.253 µM) | relative viability (Vismodegib + Crizotinib; first compound 0.8 µM) | relative viability (Vismodegib + Crizotinib; first compound 2.53 µM) | relative viability (Vismodegib + Crizotinib; first compound 8 µM) | relative viability (Vismodegib + Decitabine; first compound 0.08 µM) | relative viability (Vismodegib + Decitabine; first compound 0.253 µM) | relative viability (Vismodegib + Decitabine; first compound 0.8 µM) | relative viability (Vismodegib + Decitabine; first compound 2.53 µM) | relative viability (Vismodegib + Decitabine; first compound 8 µM) | relative viability (Vismodegib + Vorinostat; first compound 0.08 µM) | relative viability (Vismodegib + Vorinostat; first compound 0.253 µM) | relative viability (Vismodegib + Vorinostat; first compound 0.8 µM) | relative viability (Vismodegib + Vorinostat; first compound 2.53 µM) | relative viability (Vismodegib + Vorinostat; first compound 8 µM)
LCLC-103H | 0.89 | 0.795 | 0.806 | 0.735 | 0.675 | 0.871 | 1.04 | 0.955 | 1.02 | 1.04 | 0.74 | 0.755 | 0.768 | 0.726 | 0.735 | 0.74 | 0.733 | 0.613 | 0.749 | 0.539
NCI-H1915 | 0.467 | 0.488 | 0.565 | 0.461 | 0.332 | 0.903 | 0.874 | 0.877 | 0.866 | 0.965 | 0.265 | 0.264 | 0.236 | 0.245 | 0.258 | 0.491 | 0.488 | 0.497 | 0.434 | 0.534
NCI-H2085 | 0.865 | 0.802 | 0.891 | 0.667 | 0.695 | 0.867 | 0.873 | 0.854 | 0.826 | 0.83 | 0.548 | 0.461 | 0.544 | 0.56 | 0.561 | 0.743 | 0.835 | 0.821 | 0.852 | 0.727
NCI-H2228 | 0.595 | 0.717 | 0.9 | 0.69 | 0.37 | 0.563 | 0.412 | 0.426 | 0.547 | 0.419 |  |  |  |  |  | 1.03 | 0.719 | 0.589 | 0.751 | 0.574
EKVX | 0.57 | 0.744 | 0.719 | 0.628 | 0.588 | 0.849 | 0.895 | 0.898 | 1.09 | 0.952 |  | 0.383 | 0.327 | 0.297 | 0.336 | 0.77 | 0.752 | 0.802 | 0.907 | 0.655
COR-L23 | 0.579 | 0.347 | 0.463 | 0.403 | 0.287 | 0.593 | 0.589 | 0.603 | 0.591 | 0.816 | 0.413 | 0.429 | 0.505 | 0.441 | 0.41 | 0.408 | 0.478 | 0.388 | 0.384 | 0.451
SK-MES-1 | 1.19 | 1.07 | 1.01 | 0.968 | 0.949 | 0.94 | 0.936 | 0.923 | 0.969 | 1.07 | 0.401 | 0.341 | 0.435 | 0.374 | 0.443 | 1.11 | 0.981 | 1.07 | 0.973 | 1.06
